Where two headings read alike, the source gives them in different places.
Key:
[1] = target: human recombinant dopamine D3 receptor (Homo sapiens (Human), UniProt P35462); assay: Test of binding inhibition for dopamine D3 receptor ([3H]-Methylspiperone SPA); conditions: Jump-In HEK cell membranes, 2 nM [3H]-Methylspiperone, 120 min at 25° C.; read-out: hD3_Ki
Procedure, shortened: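 SPA radioligand binding on Jump-In HEK membranes expressing human D3 receptor (4 µg/well) with 2 nM [3H]-methylspiperone (final), incubated 120 min at 25 °C. Non-specific binding defined with 10 µM butaclamol. Percent inhibition computed against total and non-specific binding; Ki from dose-response curves.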

hERG channel (IKr) = hERG channel (IKr) (Homo sapiens (Human), UniProt Q12809); assay: hERG test (whole cell patch clamp, IKr); type: cell-based; conditions: human, CHO cells expressing hERG channel, pH 7.4, 3 μM, tail peak current
Chain of hERG channel (IKr) (Q12809 whole entry): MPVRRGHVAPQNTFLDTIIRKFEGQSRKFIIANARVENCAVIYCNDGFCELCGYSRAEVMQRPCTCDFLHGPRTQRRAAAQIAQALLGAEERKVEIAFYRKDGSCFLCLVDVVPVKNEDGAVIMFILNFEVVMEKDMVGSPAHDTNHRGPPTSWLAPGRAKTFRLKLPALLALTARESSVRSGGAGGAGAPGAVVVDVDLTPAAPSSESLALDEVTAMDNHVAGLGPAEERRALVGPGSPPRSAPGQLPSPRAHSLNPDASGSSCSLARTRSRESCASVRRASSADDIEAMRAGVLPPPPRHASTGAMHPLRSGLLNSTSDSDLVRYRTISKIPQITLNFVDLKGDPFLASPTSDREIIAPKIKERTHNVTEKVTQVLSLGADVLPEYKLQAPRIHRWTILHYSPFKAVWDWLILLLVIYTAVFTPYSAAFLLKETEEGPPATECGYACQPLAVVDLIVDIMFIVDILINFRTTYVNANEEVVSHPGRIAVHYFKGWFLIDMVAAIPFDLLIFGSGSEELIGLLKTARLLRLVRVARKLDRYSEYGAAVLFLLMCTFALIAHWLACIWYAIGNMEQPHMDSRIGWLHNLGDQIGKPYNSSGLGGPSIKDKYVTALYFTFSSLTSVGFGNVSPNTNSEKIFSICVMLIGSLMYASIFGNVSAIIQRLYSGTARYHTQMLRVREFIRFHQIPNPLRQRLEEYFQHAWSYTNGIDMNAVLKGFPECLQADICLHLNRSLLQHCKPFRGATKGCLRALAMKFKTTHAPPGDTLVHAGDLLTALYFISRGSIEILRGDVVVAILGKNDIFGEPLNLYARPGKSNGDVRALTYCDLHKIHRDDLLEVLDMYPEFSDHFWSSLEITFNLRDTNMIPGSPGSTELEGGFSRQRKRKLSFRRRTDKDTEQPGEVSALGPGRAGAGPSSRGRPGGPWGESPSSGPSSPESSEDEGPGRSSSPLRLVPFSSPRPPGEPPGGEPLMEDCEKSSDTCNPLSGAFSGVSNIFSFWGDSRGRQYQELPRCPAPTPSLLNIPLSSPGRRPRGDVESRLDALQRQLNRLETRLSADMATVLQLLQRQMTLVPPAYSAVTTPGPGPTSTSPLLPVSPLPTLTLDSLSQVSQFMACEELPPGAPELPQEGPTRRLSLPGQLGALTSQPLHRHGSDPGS
Description: Test Example 10: hERG Test
For the purpose of assessing risk of an electrocardiogram QT interval prolongation of the compound of the present invention, effects of the compound of the present invention on delayed rectifier K+ current (IKr), which plays an important role in the ventricular repolarization process, was studied using CHO cells expressing human ether-a-go-go related gene (hERG) channel.
After a cell was retained at a membrane potential of −80 mV by whole cell patch clamp method using an automated patch clamp system (QPatch; Sophion Bioscience A/S) and gave a leak potential of −50 mV, IKr induced by depolarization pulse stimulation at +20 mV for 2 seconds and, further, repolarization pulse stimulation at −50 mV for 2 seconds, was recorded. After the generated current was stabilized, extracellular solution (NaCl: 145 mmol/L, KCl: 4 mmol/L, CaCl2): 2 mmol/L, MgCl2: 1 mmol/L, glucose: 10 mmol/L, HEPES (4-(2-hydroxyethyl)-1-piperazineethanesulfonic acid): 10 mmol/L, pH=7.4), in which the compound of the present invention had been dissolved at an objective concentration in the extracellular solution, was applied to the cell at room temperature for 7 minutes or more. From the recording IKr, an absolute value of the tail peak current was measured based on the current value at the resting membrane potential using analysis software (QPatch Assay software; Sophion Bioscience A/S). Further, the % inhibition of tail peak current for the compound of the present invention relative to the tail peak current after application of the solution (0.1% dimethyl sulfoxide solution) was calculated to assess influence of the compound of the present invention on IKr.

[2] = target: human recombinant dopamine D2 receptor (Homo sapiens (Human), UniProt P14416); assay: Test of binding inhibition for dopamine D2 receptor ([3H]-Methylspiperone SPA); conditions: Jump-In HEK cell membranes, read-out: hD2_Ki
Chain of human recombinant dopamine D2 receptor (P14416 whole entry): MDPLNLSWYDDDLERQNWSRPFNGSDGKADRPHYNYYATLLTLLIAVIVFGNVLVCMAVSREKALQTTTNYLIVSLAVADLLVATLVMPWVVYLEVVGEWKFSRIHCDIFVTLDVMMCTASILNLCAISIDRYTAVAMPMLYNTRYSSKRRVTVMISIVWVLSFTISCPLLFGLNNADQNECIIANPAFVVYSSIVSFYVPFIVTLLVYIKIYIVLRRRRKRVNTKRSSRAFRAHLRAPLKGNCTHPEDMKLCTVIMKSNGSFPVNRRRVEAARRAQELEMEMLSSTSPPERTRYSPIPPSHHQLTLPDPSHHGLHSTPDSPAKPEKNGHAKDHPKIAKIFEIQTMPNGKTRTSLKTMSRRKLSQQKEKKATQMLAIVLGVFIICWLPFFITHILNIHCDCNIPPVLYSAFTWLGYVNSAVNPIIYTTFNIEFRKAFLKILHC
Procedure, shortened: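 Scintillation proximity competition binding of [3H]-Methylspiperone to Jump-In HEK membranes expressing human D2 (2 μg protein/well) on WGA SPA beads (0.2 mg/well), 120 min at 25° C.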

[3] = 1.2 nM [3H]-Methylspiperone, 120 min at 25° C.

Chain of human recombinant dopamine D3 receptor (P35462 whole entry): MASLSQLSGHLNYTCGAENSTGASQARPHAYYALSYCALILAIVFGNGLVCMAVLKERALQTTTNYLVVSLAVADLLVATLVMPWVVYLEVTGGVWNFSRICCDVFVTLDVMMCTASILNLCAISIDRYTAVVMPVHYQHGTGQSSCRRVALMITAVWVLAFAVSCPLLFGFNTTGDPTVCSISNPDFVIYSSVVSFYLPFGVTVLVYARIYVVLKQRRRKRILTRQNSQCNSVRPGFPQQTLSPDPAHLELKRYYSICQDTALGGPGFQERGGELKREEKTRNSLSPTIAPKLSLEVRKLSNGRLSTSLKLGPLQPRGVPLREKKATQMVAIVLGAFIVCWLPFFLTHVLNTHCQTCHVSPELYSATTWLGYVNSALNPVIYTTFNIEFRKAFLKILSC

Row | SMILES | Ki [1] [nM] | inhibition at 3 µM (hERG channel (IKr)) [%] | Ki ([2]; [3H]-Methylspiperone 1.2 nM) [nM] | Ki [2, 3] [nM]
1 | Cn1ncc(CC(=O)N[C@H]2CC[C@](F)(CCN3CCc4nc(OCC(F)F)sc4CC3)CC2)n1 [I′-41] | 0.49 | 24 | 1900 | –
2 | Cc1nc(CC(=O)N[C@H]2CC[C@H](CCN3CCc4nc(OCC(C)(F)F)sc4CC3)OC2)no1 [Example I-008] | 0.96 | 20.8 | – | > 1900
3 | CN1Cc2c(C(=O)N[C@H]3CC[C@H](CCN4CCc5sc(C6CC(F)(F)C6)nc5C4)CC3)cccc2C1=O [Example I-012] | 0.15 | 19 | – | 260
4 | C[C@@H](Oc1nc2c(s1)CCN(CC[C@H]1CC[C@H](NC(=O)c3cccc4nn(C)cc34)CC1)CC2)C(F)(F)F [Example I-083] | 0.16 | 25.1 | – | > 2200
5 | Cc1ncc(CC(=O)N[C@H]2CC[C@H](CCN3CCc4ccc(OC(C)C)nc4CC3)CC2)o1 [Example I-006] | 0.59 | 23 | – | > 1900
6 | Cc1ncccc1C(=O)N[C@H]1CC[C@H](CCN2CCc3nc(OCC(C)(F)F)sc3CC2)CC1 [Example I-034] | 0.36 | 34.3 | – | 560
7 | Cc1nnc(CC(=O)N[C@H]2CC[C@H](CCN3CCc4ccc(OC(C)C)nc4CC3)CC2)s1 [Example I-007] | 0.68 | 33.7 | – | 1500
8 | Cc1nnc(CC(=O)N[C@H]2CC[C@H](CCN3CCc4sc(C5CC(F)(F)C5)nc4C3)CC2)s1 [Example I-071] | 0.16 | 16.6 | – | 450
9 | Cc1ncc(/C=C/C(=O)N[C@H]2CC[C@H](CCN3CCc4nc(OCC(C)(F)F)sc4CC3)CC2)cn1 [Example I-037] | 0.097 | 28 | – | 240
10 | Cc1nnc(CC(=O)N[C@H]2CC[C@](F)(CCN3CCc4ccc(OCC(F)F)nc4CC3)CC2)o1 [Example I-025] | 0.46 | 14.9 | – | 820
11 | Cc1cnc(CC(=O)N[C@H]2CC[C@](F)(CCN3CCc4nc(OCC(F)F)sc4CC3)CC2)o1 [Example I-038] | 0.81 | 21.4 | – | > 1700
12 | COC(CN1CCc2ccc(OCC(F)(F)F)nc2CC1)[C@H]1CC[C@H](NC(=O)Cc2cnc(C)o2)CC1 (single isomer, unassigned) [Example I-045] | 0.81 | 18.3 | – | 1700
13 | Cc1ncc(CC(=O)N[C@H]2CC[C@](F)(CCN3CCc4nc(OCC(F)F)sc4CC3)CC2)o1 [Example I-060] | 0.59 | 17.7 | – | 1400
14 | Cn1cc2c(C(=O)N[C@H]3CC[C@H](CCN4CCc5sc([C@H]6C[C@@H](F)C6)nc5C4)CC3)cccc2n1 [Example I-035] | 0.18 | 16 | – | 210
15 | Cn1cc2c(C(=O)NN3CCC(CCN4CCc5sc(OCC(F)(F)F)nc5C4)CC3)ccc(F)c2n1 [Example I-081] | 0.2 | 5.59 | – | 640
16 | Cn1c(C(=O)N[C@H]2CC[C@](F)(CCN3CCc4nc(OCCC(F)(F)F)sc4CC3)CC2)cccc1=O [Example I-113] | 0.87 | 6.89 | – | > 2200
17 | Cn1c(C(=O)N[C@H]2CC[C@H](CCN3CCc4nc(OCC(C)(F)F)sc4CC3)CC2)cccc1=O [Example I-056] | 0.24 | 10.7 | – | 490
18 | Cc1nc(CC(=O)N[C@H]2CC[C@](F)(CCN3CCc4nc(OCC(F)F)sc4CC3)CC2)no1 [Example I-039] | 1 | 22.3 | – | 1200

Row | SMILES | Ki [1] [nM] | inhibition at 3 µM (hERG channel (IKr)) [%] | Ki ([2]; [3H]-Methylspiperone 1.2 nM) [nM] | Ki [2, 3] [nM]
19 | Cc1cnc(OCC(=O)N[C@H]2CC[C@H](CCN3CCc4sc(OCC(C)(F)F)nc4C3)CC2)cn1 [Example I-046] | 0.34 | 14.3 | – | 500
20 | COC(CN1CCc2sc(OCC(C)(F)F)nc2C1)C1CC2(CC(NC(=O)c3cccc4nn(C)cc34)C2)C1 (single isomer, unassigned) [Example I-047] | 0.058 | 13.6 | – | 110
21 | Cc1cnc(CC(=O)N[C@H]2CC[C@H](CCN3CCc4nc(OCC(C)(F)F)sc4CC3)CC2)o1 [Example I-036] | 0.54 | 29.8 | – | 910
22 | Cc1ncccc1C(=O)N[C@H]1CC[C@H](CCN2CCc3nc(OC4CC(F)(F)C4)sc3CC2)CC1 [Example I-019] | 0.37 | 8.86 | – | > 1800
23 | Cc1ncccc1C(=O)N[C@H]1CC[C@H](CCN2CCc3nc(OCCC(F)(F)F)sc3CC2)CC1 [Example I-099] | 0.97 | 29.4 | – | 1600
24 | Cn1cc(CC(=O)N[C@H]2CC[C@](F)(CCN3CCc4nc(OCC(F)F)sc4CC3)CC2)cn1 [Example I-059] | 0.69 | 6.72 | – | > 1700
25 | Cc1ncc(CC(=O)N[C@H]2CC[C@](F)(CCN3CCc4nc(OCC(C)(F)F)sc4CC3)CC2)o1 [Example I-043] | 0.12 | 20.7 | – | 970
26 | CN1Cc2c(C(=O)N[C@H]3CC[C@H](CCN4CCc5sc(OC6CC(F)(F)C6)nc5C4)CC3)cccc2C1=O [Example I-001] | 0.2 | 21.3 | – | 290
27 | Cc1ncc(CC(=O)N[C@H]2CC[C@H](CCN3CCc4ccc(OC5CCC5)nc4CC3)CC2)o1 [Example I-033] | 0.78 | 12.2 | – | > 2200
28 | Cc1cnc(CC(=O)N[C@H]2CC[C@](F)(CCN3CCc4ccc(OC5CCC5)nc4CC3)CC2)o1 [Example I-105] | 0.96 | 30.1 | – | > 2300
29 | Cn1cc(CC(=O)N[C@H]2CC[C@H](CCN3CCc4ccc(OC5CCC5)nc4CC3)CC2)cn1 [Example I-032] | 0.48 | 31.9 | – | > 2200
30 | CC[C@@H](C)Oc1ccc2c(n1)CCN(CC[C@H]1CC[C@H](NC(=O)Cc3cnn(C)n3)CC1)CC2 [Example I-111] | 0.17 | 14.6 | – | 1600
31 | Cc1nnc(CC(=O)N[C@H]2CC[C@H](CCN3CCc4nc(OCCC(F)(F)F)sc4CC3)CC2)o1 [Example I-100] | 0.72 | 33.9 | – | 1500
32 | Cc1nc(CC(=O)N[C@H]2CC[C@](F)(CCN3CCc4nc(OCC(C)(F)F)sc4CC3)CC2)no1 [Example I-013] | 0.53 | 21.4 | – | 920
33 | Cn1cc(CC(=O)N[C@H]2CC[C@H](CCN3CCc4nc(OC5CC(F)(F)C5)sc4CC3)CC2)cn1 [Example I-021] | 0.15 | 24.3 | – | 1900
34 | Cn1cc2c(C(=O)NN3CCC(CCN4CCc5ccc(OCC(F)(F)F)nc5CC4)CC3)cccc2n1 [Example I-016] | 0.039 | 19.1 | – | 850
35 | Cn1cc(CC(=O)N[C@H]2CC[C@H](CCN3CCc4nc(OCC(C)(F)F)sc4CC3)CC2)cn1 [Example I-004] | 0.15 | 21.6 | – | 700
